# Experimental data taken from patent US9889146B2, “Benzoxaborole compounds and uses thereof” (priority 2012, dated 2018).
# Read-outs that look alike come from different tables or passages of the source.
# Key:
# Format in all cases: cell-based
# Klebsiella spp. (WT) = test: microbe, parasite or virus in culture; settings: Klebsiella spp. (WT); for MIC90: 159 isolates
# [1] = tested on: Enterobacter cloacae (WT); test: microbe, parasite or virus in culture; settings: for MIC90: 202 isolates
# [2] = tested on: Citrobacter freundii (AmpC); test: microbe, parasite or virus in culture; settings: Citrobacter freundii (AmpC); for MIC90: 60 isolates
# Enterobacteriaceae = test: organism not typed; settings: Enterobacteriaceae; for MIC90: 2029 isolates
# E. coli (ESBL) = test: microbe, parasite or virus in culture; settings: E. coli (ESBL); for MIC90: 27 isolates
# Klebsiella spp. (ESBL) = test: microbe, parasite or virus in culture; settings: Klebsiella spp. (ESBL); for MIC90: 71 isolates
# [3] = tested on: Enterobacter cloacae (AmpC); test: microbe, parasite or virus in culture; settings: Enterobacter cloacae (AmpC); for MIC90: 50 isolates
# Proteus mirabilis (WT) = test: microbe, parasite or virus in culture; settings: Proteus mirabilis (WT); for MIC90: 235 isolates
# [4] = tested on: Enterobacter aerogenes (AmpC); test: microbe, parasite or virus in culture; settings: Enterobacter aerogenes (AmpC); for MIC90: 51 isolates
# [5] = tested on: Morganella morganii (AmpC); test: microbe, parasite or virus in culture; settings: Morganella morganii (AmpC); for MIC90: 18 isolates
# [6] = tested on: Enterobacter aerogenes (WT); test: microbe, parasite or virus in culture; settings: Enterobacter aerogenes (WT); for MIC90: 199 isolates
# Proteus vulgaris (WT) = test: microbe, parasite or virus in culture; settings: Proteus vulgaris (WT); for MIC90: 41 isolates
# E. coli (WT) = test: microbe, parasite or virus in culture; settings: E. coli (WT); for MIC90: 214 isolates
# S. marcescens (AmpC) = test: microbe, parasite or virus in culture; settings: S. marcescens (AmpC); for MIC90: 26 isolates
# [7] = tested on: E. coli ATCC 25922, K. pneumoniae ATCC 13883 and P. aeruginosa ATCC 27853; test: MIC, three strains and their mutants summarised; settings: MIC in E. coli, P. aeruginosa and K. pneumoniae mutants versus wild-type
# Description: (§1) Spontaneous Resistance Frequency was determined in vitro for GSK2251052 and the resistance mutants in E. coli ATCC 25922, K. pneumoniae ATCC 13883, and P. aeruginosa ATCC 27853 strains were characterized. GSK2251052 was prepared as described in U.S. Pat. No. 7,816,344 (the entire contents of which are hereby incorporated by reference herein). LB broth, Mueller Hinton II broth (adjusted), and Difco noble agar were obtained from Becton Dickinson (Cockeysville, Md., USA). M9 minimal broth containing 1×M9 salt, 0.5 μg/ML thiamine, 1 mM MgSO4, 0.1 mM CaCl2, 2% glucose, was obtained from Teknova (Hollister, Calif., USA). Antibacterial agents ciprofloxacin, ceftazidime, chloramphenicol, gentamycin, kanamycin, polymixin B, tobramycin and trimethoprim, and amino acids were obtained from Sigma Chemicals (St. Louis, Mo., USA). Strains were obtained from ATCC (Manassas, Va., USA).
# (§2) Susceptibility tests were performed following the recommendations for aerobic bacteria (M7-A7) from the Clinical and Laboratories Standards Institute (CLSI).
# (§3) Laboratory generated mutants resistant to GSK2251052 contain mutations in the editing domain of LeuRS. Six to ten GSK2251052 resistant colonies of E. coli ATCC 25922, K. pneumoniae ATCC 13883 and P. aeruginosa ATCC 27853 were selected for further analysis and their MICs to GSK2251052 were determined (Table 4-7).
# GSK2251052 resistant mutants were not cross-resistant to commercial antibiotics.
# [8] = tested on: P. aeruginosa ATCC 27853 wild type and mutants; test: MIC, wild type and GSK2251052 resistant mutants; settings: for MIC: Pseudomonas aeruginosa
# Description: as §1, §2, §3
# [9] = tested on: E. coli ATCC 25922 wild type and mutants; test: MIC, wild type and GSK2251052 resistant mutants; settings: for MIC: Escherichia coli
# Description: as §1, §2, §3
# [10] = tested on: K. pneumoniae ATCC 13883 wild type and mutants; test: MIC, wild type and GSK2251052 resistant mutants; settings: for MIC: Klebsiella pneumoniae
# Description: as §1, §2, §3
# Klebsiella spp. (KPC) = test: microbe, parasite or virus in culture; settings: Klebsiella spp. (KPC); for MIC90: 26 isolates
# Providencia spp.(all) = test: microbe, parasite or virus in culture; settings: Providencia spp.(all); for MIC90: 68 isolates
# E. coli ATCC 25922 = test: Spontaneous frequency of resistance; settings: 24 h
# Description: as §1
# (§4) Selection of resistance to GSK2251052 was attempted by spreading various amounts of bacteria onto MHBII noble agar plates containing 4×MIC (minimum inhibitory concentration) or 10×MIC of GSK2251052. Colonies were counted after 24 hours and 48 hours incubation at 37° C. The resistance of these colonies was confirmed by their ability to grow on plates containing GSK2251052 at either 4× or 10×MIC. Frequency of resistance was determined by dividing the number of resistant mutants by the total number of cells plated as determined by plating dilutions of the overnight culture on LB plates.
# K. pneumoniae ATCC 13883 = test: Spontaneous frequency of resistance; settings: 24 h
# Description: as §1, §4
# P. aeruginosa ATCC 27853 = test: Spontaneous frequency of resistance; settings: 24 h
# Description: as §1, §4
molecule,measurement,setting,value
Gentamicin,MIC90,Klebsiella spp. (WT),1 µg/mL
same,MIC90,[1],1 µg/mL
same,MIC90,[2],> 16 µg/mL
same,MIC90,Enterobacteriaceae,16 µg/mL
same,MIC90,E. coli (ESBL),> 16 µg/mL
same,MIC90,Klebsiella spp. (ESBL),> 16 µg/mL
same,MIC90,[3],> 16 µg/mL
same,MIC90,Proteus mirabilis (WT),4 µg/mL
same,MIC90,[4],4 µg/mL
same,MIC90,[5],> 16 µg/mL
same,MIC90,[6],1 µg/mL
same,MIC90,Proteus vulgaris (WT),2 µg/mL
same,MIC90,E. coli (WT),> 16 µg/mL
same,MIC90,S. marcescens (AmpC),> 16 µg/mL
same,cross-resistance of GSK2251052 resistant mutants,[7],did not have any significant difference in MIC values than wild-type
same,MICs,[8]; P wt.,8 µg/mL
same,MICs,[8]; mutant P 101,4 µg/mL
same,MICs,[8]; mutant P106,4 µg/mL
same,MICs,[8]; mutant P108,4 µg/mL
same,MICs,[9]; E wt,2 µg/mL
same,MICs,[9]; mutant E 101,1 µg/mL
same,MICs,[9]; mutant E 102,1 µg/mL
same,MICs,[9]; mutant E 107,1 µg/mL
same,MICs,[10]; K wt.,1 µg/mL
same,MICs,[10]; mutant K 104,1 µg/mL
same,MICs,[10]; mutant K 105,1 µg/mL
same,MICs,[10]; mutant K 107,1 µg/mL
same,MICs,[10]; mutant K 108,0.5 µg/mL
same,MICs,[10]; mutant K 110,1 µg/mL
same,MIC90,Klebsiella spp. (KPC),16 µg/mL
same,MIC90,Providencia spp.(all),> 16 µg/mL
O=C(O)c1cn(C2CC2)c2cc(N3CCNCC3)c(F)cc2c1=O [Ciprofloxacin],cross-resistance of GSK2251052 resistant mutants,[7],did not have any significant difference in MIC values than wild-type
same,MIC,"[8]; ATCC27853, P wt., read-out: MICs",0.5 µg/mL
same,MIC,"[8]; ATCC27853, read-out: MICs, mutant P 101",1 µg/mL
same,MIC,"[8]; ATCC27853, read-out: MICs, mutant P106",1 µg/mL
same,MIC,"[8]; ATCC27853, read-out: MICs, mutant P108",0.5 µg/mL
same,MIC,"[9]; ATCC25922, E wt, read-out: MICs",8 ng/mL
same,MIC,"[9]; ATCC25922, read-out: MICs, mutant E 101",8 ng/mL
same,MIC,"[9]; ATCC25922, read-out: MICs, mutant E 102",8 ng/mL
same,MIC,"[9]; ATCC25922, read-out: MICs, mutant E 107",15 ng/mL
same,MIC,"[10]; ATCC13883, K wt., read-out: MICs",0.125 µg/mL
same,MIC,"[10]; ATCC13883, read-out: MICs, mutant K 104",0.03 µg/mL
same,MIC,"[10]; ATCC13883, read-out: MICs, mutant K 105",0.06 µg/mL
same,MIC,"[10]; ATCC13883, read-out: MICs, mutant K 107",0.06 µg/mL
same,MIC,"[10]; ATCC13883, read-out: MICs, mutant K 108",0.03 µg/mL
same,MIC,"[10]; ATCC13883, read-out: MICs, mutant K 110",0.03 µg/mL
same,Frequency of Resistance,E. coli ATCC 25922; 4 X MIC,2 × 10^−8
same,Frequency of Resistance,E. coli ATCC 25922; 10 X MIC,<4 × 10^−9
same,Frequency of Resistance,K. pneumoniae ATCC 13883; 4 X MIC,5 × 10^−7
same,Frequency of Resistance,K. pneumoniae ATCC 13883; 10 X MIC,<5 × 10^−9
same,Frequency of Resistance,P. aeruginosa ATCC 27853; 4 X MIC,1 × 10^−8
same,Frequency of Resistance,P. aeruginosa ATCC 27853; 10 X MIC,<1 × 10^−9
Polymixin B,MIC90,Klebsiella spp. (WT),1 µg/mL
same,susceptibility category of MIC90,Klebsiella spp. (WT); polymixinB criteria,* (susceptible ≦2 μg/mL)
same,MIC90,[1],> 8 µg/mL
same,susceptibility category of MIC90,[1]; polymixinB criteria,*** (resistant ≧8 μg/mL)
same,MIC90,[2],1 µg/mL
same,susceptibility category of MIC90,[2]; polymixinB criteria,* (susceptible ≦2 μg/mL)
same,MIC90,Enterobacteriaceae,> 8 µg/mL
same,susceptibility category of MIC90,Enterobacteriaceae; polymixinB criteria,*** (resistant ≧8 μg/mL)
same,MIC90,E. coli (ESBL),2 µg/mL
same,susceptibility category of MIC90,E. coli (ESBL); polymixinB criteria,* (susceptible ≦2 μg/mL)
same,MIC90,Klebsiella spp. (ESBL),2 µg/mL
same,susceptibility category of MIC90,Klebsiella spp. (ESBL); polymixinB criteria,* (susceptible ≦2 μg/mL)
same,MIC90,[3],4 µg/mL
same,susceptibility category of MIC90,[3]; polymixinB criteria,** (intermediate 4 μg/mL)
same,MIC90,Proteus mirabilis (WT),> 8 µg/mL
same,susceptibility category of MIC90,Proteus mirabilis (WT); polymixinB criteria,*** (resistant ≧8 μg/mL)
same,MIC90,[4],2 µg/mL
same,susceptibility category of MIC90,[4]; polymixinB criteria,* (susceptible ≦2 μg/mL)
same,MIC90,[5],> 8 µg/mL
same,susceptibility category of MIC90,[5]; polymixinB criteria,*** (resistant ≧8 μg/mL)
same,MIC90,[6],4 µg/mL
same,susceptibility category of MIC90,[6]; polymixinB criteria,** (intermediate 4 μg/mL)
same,MIC90,Proteus vulgaris (WT),> 8 µg/mL
same,susceptibility category of MIC90,Proteus vulgaris (WT); polymixinB criteria,*** (resistant ≧8 μg/mL)
same,MIC90,E. coli (WT),1 µg/mL
same,susceptibility category of MIC90,E. coli (WT); polymixinB criteria,* (susceptible ≦2 μg/mL)
same,MIC90,S. marcescens (AmpC),> 8 µg/mL
same,susceptibility category of MIC90,S. marcescens (AmpC); polymixinB criteria,*** (resistant ≧8 μg/mL)
same,cross-resistance of GSK2251052 resistant mutants,[7],did not have any significant difference in MIC values than wild-type
same,MICs,[8]; P wt.,4 µg/mL
same,MICs,[8]; mutant P 101,4 µg/mL
same,MICs,[8]; mutant P106,2 µg/mL
same,MICs,[8]; mutant P108,4 µg/mL
same,MICs,[9]; E wt,4 µg/mL
same,MICs,[9]; mutant E 101,4 µg/mL
same,MICs,[9]; mutant E 102,4 µg/mL
same,MICs,[9]; mutant E 107,4 µg/mL
same,MICs,[10]; K wt.,4 µg/mL
same,MICs,[10]; mutant K 104,8 µg/mL
same,MICs,[10]; mutant K 105,4 µg/mL
same,MICs,[10]; mutant K 107,2 µg/mL
same,MICs,[10]; mutant K 108,4 µg/mL
same,MICs,[10]; mutant K 110,4 µg/mL
same,MIC90,Klebsiella spp. (KPC),> 8 µg/mL
same,susceptibility category of MIC90,Klebsiella spp. (KPC); polymixinB criteria,*** (resistant ≧8 μg/mL)
same,MIC90,Providencia spp.(all),8 µg/mL
same,susceptibility category of MIC90,Providencia spp.(all); polymixinB criteria,*** (resistant ≧8 μg/mL)
